Assay results as given in patent US6054460A, “Anticonvulsive and antiallergic/antiasthmatic pyrazolo-[3,4-d]pyrimidines, and process for preparing” (Arzneimittelwerk Dresden GmbH, priority 1998, dated 2000).
Like-named read-outs stand apart in the source and are kept apart here.

Legend:
[1] = tested on: maximal electroshock; experiment: Maximal electroshock (MES), anticonvulsive action, mouse i.p.; assay type: in vivo
Text: (§1) ^3) Mouse i.p.: MES = maximal electroshock, PTZ = s.c. pentetrazole
(§2) ^5) In % of the protected animals; n.t. = not tested

[2] = tested on: s.c. pentetrazole; experiment: s.c. pentetrazole (PTZ), anticonvulsive action, mouse i.p.; assay type: in vivo; details: ip, read-out: Action, PTZ (protected animals)
Text: as §1, §2

[3] = tested on: maximal electroshock; experiment: Maximal electroshock, anticonvulsive action, rat p.o.; assay type: in vivo; details: for ED50: po, maximal electroshock
Text: Week-blad, Sc. Ed. 14, 132 (1992) and Antiepileptic Drugs, Third Ed., Raven Press, New York 1989.
(§3) Analogous results were obtained for the orally administered tests.

[4] = in vivo; details: rat, po
Text: as §3

[5] = molecular target: T1, adenosine receptor (A3) (Homo sapiens, UniProt P0DMS8); experiment: Binding at the adenosine receptor (A3) and selectivities; details: for Ki: adenosine A3 receptor; for selectivity A3/A1: ratio A3/A1; for selectivity A3/A2: ratio A3/A2
T1 sequence (P0DMS8 1-318): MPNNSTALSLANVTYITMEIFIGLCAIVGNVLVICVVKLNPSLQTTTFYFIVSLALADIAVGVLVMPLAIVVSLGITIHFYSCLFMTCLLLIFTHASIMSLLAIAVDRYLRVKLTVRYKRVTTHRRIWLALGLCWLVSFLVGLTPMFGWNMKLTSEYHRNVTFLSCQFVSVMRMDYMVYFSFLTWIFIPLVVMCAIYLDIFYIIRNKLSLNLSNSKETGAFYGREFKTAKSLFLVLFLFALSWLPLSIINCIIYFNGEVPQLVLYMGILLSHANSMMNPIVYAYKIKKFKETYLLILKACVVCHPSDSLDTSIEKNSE

[6] = Octanol/water partition coefficient
[7] = tested on: eosinophilic granulocytes; experiment: Inhibition of infiltration of eosinophilic granulocytes into the lungs (BAL, ovalbumin-challenged guinea-pigs, oral); assay type: in vivo, guinea-pig (Dunkin Hartley Shoe); details: guinea-pig, 100 mg/kg, 2 hours before allergen challenge
Experimental: The compounds of the present invention were tested in vivo for antiasthmatic action after oral administration to male guinea-pigs, and the inhibition of the infiltration of the eosinophilic granulocytes into the lungs was determined. Male guinea-pigs (Dunkin Hartley Shoe) weighing 200-250 g were actively sensitized by an s.c. injection of ovalbumin (10 μg+1 mg of aluminum hydroxide) and boosted 2 weeks later. One week after boosting with ovalbumin, the animals were challenged with an aerosol of 0.5% strength ovalbumin solution for 20-30 sec. 24 hours later, a bronchoalveolar lavage (BAL) was carried out in the animals under urethane anaesthesia using 2×5 ml of saline solution. The lavage fluid was collected and centrifuged at 400×g for 10 min and the cell pellets were suspended in 1 ml of saline solution. The eosinophilic granulocytes were counted microscopically in a Neubauer chamber. A Becton Dickinson test kit (No. 5877) for eosinophils was used for staining. The test kit used phloxine B as a selective stain for eosinophils. The eosinophils in the BAL were counted for each animal and the eosinophils were calculated in millions/animal. The test substances were administered orally 2 hours before allergen challenge.
The percentage inhibition of eosinophilia of the group treated with substance is calculated according to the following formula:
(A-C)-(B-C)/(A-C)×100=% inhibition […]

[8] = ip, mouse i.p., 100 mg/kg, read-out: Action, MES (protected animals)
[9] = ip, mouse i.p., read-out: Action, MES (protected animals)

| Compound | responders at 100 mg/kg [1, 8] [%] | responders at 100 mg/kg ([2]; mouse i.p., 100 mg/kg) [%] | Ki [5] [µM] | selectivity A3/A1 [5] | selectivity A3/A2 [5] | logP [6] | responders at 30 mg/kg [1, 9] [%] | also measured |
| --- | --- | --- | --- | --- | --- | --- | --- | --- |
| S=c1[nH]cnc2nn(Cc3ccccc3Cl)cc12 [Example 15, 2-(2-chlorobenzyl)pyrazolo[3,4-d]pyrimidine-4(5H)-thione] | 100 | 60 | 0.5 | 0.007 | < 0.001 | 1.54 | – | ED50 [3]: 12 mg/kg; anticonvulsive action, in words ([3]; qualitative): strongly anticonvulsive; TD50 [4]: > 460 mg/kg; therapeutic breadth, in words [4]: great therapeutic breadth |
| O=c1[nH]cnc2nn(Cc3c(F)cccc3Cl)cc12 [Example 9, 2-(2-chloro-6-fluorobenzyl)pyrazolo[3,4-d]pyrimidin-4(5H)-one] | – | – | 1 | 0.002 | 0.004 | 0.93 | 100 | – |
| S=c1[nH]cnc2nn(Cc3ccccc3I)cc12 [Example 17, 2-(2-iodobenzyl)pyrazolo[3,4-d]pyrimidine-4(5H)-thione] | 30 | – | 0.5 | 0.008 | < 0.001 | 1.4 | – | – |
| 2-benzyl-pyrazolo-[3,4-d]-pyrimidine [reference compound] | – | – | – | – | – | – | – | Action, MES (protected animals) ([1]; mouse i.p., 100 mg/kg): 100%; Log P (octanol/water partition coefficient): 0.40 |
| CCCC(CCC)C(=O)O [Valproate, reference compound] | – | – | – | – | – | – | – | responders at 100 mg/kg ([1]; Mus musculus, ip, read-out: Action, MES (protected animals)): 0%; responders at 100 mg/kg ([2]; Mus musculus): 30% |
| O=c1[nH]cnc2nn(Cc3c(F)cccc3F)cc12 [Example 8, 2-(2,6-difluorobenzyl)pyrazolo[3,4-d]pyrimidin-4(5H)-one] | – | – | – | – | – | 0.18 | 100 | responders at 30 mg/kg ([2]; mouse i.p.): 40% |
| Fc1cccc(F)c1Cn1cc2c(=S)[nH]cnc2n1 [Example 19, 2-(2,6-difluorobenzyl)pyrazolo[3,4-d]pyrimidine-4(5H)-thione] | – | 60 | – | – | – | 1.57 | 100 | – |
| O=c1[nH]cnc2nn(Cc3ccccc3Cl)cc12 [Example 2, 2-(2-chlorobenzyl)pyrazolo[3,4-d]pyrimidin-4(5H)-one] | 100 | 60 | 2 | 0.02 | 0.06 | 1.01 | – | ED50 [3]: 32 mg/kg; TD50 [4]: > 250 mg/kg |
| COc1ccc(Cn2cc3c(=O)[nH]cnc3n2)cc1 [Example 12, 2-(4-methoxybenzyl)pyrazolo[3,4-d]pyrimidin-4(5H)-one] | 15 | – | 9.8 | 0.5 | 0.01 | 0.62 | – | responders at 300 mg/kg ([2]; mouse i.p.): 40% |
| NC(=O)N1c2ccccc2C=Cc2ccccc21 [Carbamazepine, reference compound] | 100 | 0 | – | – | – | – | – | – |
| O=c1[nH]cnc2nn(Cc3ccccc3Br)cc12 [Example 3, 2-(2-bromobenzyl)pyrazolo[3,4-d]pyrimidin-4(5H)-one] | 100 | – | 0.43 | 0.008 | 0.005 | 0.56 | – | responders at 300 mg/kg ([2]; mouse i.p.): 80%; % inhibition of infiltration of eosinophilic granulocytes into the lung [7]: 74% |
| O=c1[nH]cnc2nn(Cc3ccccc3F)cc12 [Example 1, 2-(2-fluorobenzyl)pyrazolo[3,4-d]pyrimidin-4(5H)-one] | – | 100 | 3.2 | 0.7 | 0.01 | 0.2 | 100 | – |
| O=c1[nH]cnc2nn(Cc3ccc(Cl)cc3Cl)cc12 [Example 11, 2-(2,4-dichlorobenzyl)pyrazolo[3,4-d]pyrimidin-4(5H)-one] | 100 | 20 | 0.71 | 0.04 | 0.01 | 1.68 | – | – |
| O=c1[nH]cnc2nn(Cc3cc4c(cc3Cl)OCO4)cc12 [Example 13, 2-(2-chloro-4,5-methylenedioxybenzyl)pyrazolo[3,4-d]pyrimidin-4(5H)-one] | 30 | – | 8.3 | 0.4 | 0.02 | 1.21 | – | – |
| Cc1ccccc1Cn1cc2c(=O)[nH]cnc2n1 [Example 6, 2-(2-methylbenzyl)pyrazolo[3,4-d]pyrimidin-4(5H)-one] | – | 20 | 4 | 0.01 | 0.08 | 0.75 | 100 | – |
| FC(F)(F)c1ccccc1Cn1cc2c(=S)[nH]cnc2n1 [Example 18, 2-(2-trifluoromethylbenzyl)pyrazolo[3,4-d]pyrimidine-4(5H)-thione] | 100 | 80 | – | – | – | 1.6 | – | – |
| O=c1[nH]cnc2nn(Cc3c(Cl)cccc3Cl)cc12 [Example 10, 2-(2,6-dichlorobenzyl)pyrazolo[3,4-d]pyrimidin-4(5H)-one] | 60 | – | 1.6 | 0.02 | 0.02 | 1.16 | – | – |
| O=c1[nH]cnc2nn(Cc3cccc(C(F)(F)F)c3)cc12 [Example 7, 2-(3-trifluoromethylbenzyl)pyrazolo[3,4-d]pyrimidin-4(5H)-one] | – | 60 | – | – | – | 1 | 100 | – |
| S=c1[nH]cnc2nn(Cc3ccccc3Br)cc12 [Example 16, 2-(2-bromobenzyl)pyrazolo[3,4-d]pyrimidine-4(5H)-thione] | 30 | – | 0.34 | 0.005 | < 0.001 | 1.2 | – | – |
| O=c1[nH]cnc2nn(Cc3ccccc3I)cc12 [Example 4, 2-(2-iodobenzyl)pyrazolo[3,4-d]pyrimidin-4(5H)-one] | – | – | 0.49 | 0.008 | < 0.0005 | 0.74 | – | responders at 300 mg/kg ([1]; ip, mouse i.p., 300 mg/kg, read-out: Action, MES (protected animals)): 100% |
| O=c1[nH]cnc2nn(Cc3ccccc3C(F)(F)F)cc12 [Example 5, 2-(2-trifluoromethylbenzyl)pyrazolo[3,4-d]pyrimidin-4(5H)-one] | – | – | 0.79 | 0.002 | 0.007 | 1.08 | 100 | responders at 30 mg/kg ([2]; mouse i.p.): 20% |
